Measurements from US9637453B2, “3-spirocyclic-6-hydroxamic acid tetralins as HDAC inhibitors” (Forma Therapeutics, Inc., priority 2015, dated 2017).

How the values were obtained:
[1] = target: T1, Full length human recombinant HDAC6 (Homo sapiens, UniProt Q9UBN7); assay: In vitro histone deacetylase assay, enzymatic HDAC6 (electrophoretic mobility shift assay); assay type: biochemical; conditions: 1 nM HDAC6; 2 μM peptide substrate FAM-RHKK(Ac)—NH2; 25° C.; 12 concentrations; read-out: HDAC6 Activity Range (IC50)
T1 construct: Full length human recombinant HDAC6 and HDAC11 proteins were expressed in baculoviral system
T1 sequence (Q9UBN7 1-1215): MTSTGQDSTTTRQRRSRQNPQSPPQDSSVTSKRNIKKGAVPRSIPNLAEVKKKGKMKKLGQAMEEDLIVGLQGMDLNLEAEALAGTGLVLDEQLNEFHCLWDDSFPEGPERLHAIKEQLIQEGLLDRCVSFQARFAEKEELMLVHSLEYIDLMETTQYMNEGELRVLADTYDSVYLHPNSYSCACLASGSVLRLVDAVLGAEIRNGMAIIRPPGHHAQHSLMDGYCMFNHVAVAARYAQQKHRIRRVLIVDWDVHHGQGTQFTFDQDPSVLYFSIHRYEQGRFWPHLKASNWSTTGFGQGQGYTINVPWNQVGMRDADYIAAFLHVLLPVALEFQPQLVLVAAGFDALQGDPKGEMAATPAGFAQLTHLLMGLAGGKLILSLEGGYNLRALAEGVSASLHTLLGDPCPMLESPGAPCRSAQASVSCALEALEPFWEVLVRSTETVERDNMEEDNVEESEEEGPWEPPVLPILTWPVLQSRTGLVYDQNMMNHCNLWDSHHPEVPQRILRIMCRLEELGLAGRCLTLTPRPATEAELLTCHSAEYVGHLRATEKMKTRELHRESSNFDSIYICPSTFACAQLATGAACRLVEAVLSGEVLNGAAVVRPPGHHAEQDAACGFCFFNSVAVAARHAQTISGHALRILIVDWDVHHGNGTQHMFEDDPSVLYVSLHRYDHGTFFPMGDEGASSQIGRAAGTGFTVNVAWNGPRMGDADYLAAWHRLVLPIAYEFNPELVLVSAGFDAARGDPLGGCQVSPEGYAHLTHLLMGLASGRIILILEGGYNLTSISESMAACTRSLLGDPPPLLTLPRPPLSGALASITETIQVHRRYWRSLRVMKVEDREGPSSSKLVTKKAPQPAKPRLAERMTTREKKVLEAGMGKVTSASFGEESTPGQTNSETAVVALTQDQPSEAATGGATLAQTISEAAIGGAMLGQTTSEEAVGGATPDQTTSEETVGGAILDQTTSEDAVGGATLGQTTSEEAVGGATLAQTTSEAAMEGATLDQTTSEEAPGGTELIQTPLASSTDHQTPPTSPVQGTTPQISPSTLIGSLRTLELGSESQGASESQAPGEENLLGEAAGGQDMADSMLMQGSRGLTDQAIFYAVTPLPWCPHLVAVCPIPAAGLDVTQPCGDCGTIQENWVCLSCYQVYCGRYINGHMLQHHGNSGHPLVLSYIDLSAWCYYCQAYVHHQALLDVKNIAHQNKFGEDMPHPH
Procedure: (§1) The enzymatic HDAC6 and HDAC11 assays were performed using electrophoretic mobility shift assay. Full length human recombinant HDAC6 and HDAC11 proteins were expressed in baculoviral system and purified by affinity chromatography. The enzymatic reactions were assembled in 384 well plates in a total volume of 25 μL in a reaction buffer composing: 100 mM HEPES, pH 7.5, 25 mM KCl, 0.1% bovine serum albumin, 0.01% Triton X-100, 1% DMSO (from compounds) 2 μM of the fluorescently labeled peptide substrate and enzyme. The enzymes were added at a final concentration of 1 nM for HDAC6, and 10 nM for HDAC11. The peptide substrate FAM-RHKK(Ac)—NH2 was used for HDAC6, and FAM-RHKK(tri-fluor-Ac)—NH2 for HDAC11. The compounds were tested at 12 concentrations spaced by 3× dilution intervals. Negative control samples (0%-inhibition in the absence of inhibitor) and positive control samples (100%-inhibition) were assembled in replicates of four in each assay plate. The reactions were incubated at 25° C. and quenched by the addition of 45 μL of termination buffer (100 mM HEPES, pH 7.5, 0.01% Triton X-100, 0.05% SDS).
(§2) The terminated assay plates were analyzed on LabChip® 3000 microfluidic electrophoresis instrument (Perkin Elmer/Caliper Life Sciences). The fluorescence intensity of the electrophoretically separated de-acetylated product and substrate peptide was measured. Activity in each sample was determined as the product to sum ratio (PSR): P/(S+P), where P is the peak height of the product peptide and S is the peak height of the substrate peptide. Percent inhibition (Pinh) is determined using following equation:
(§3) Pinh=(PSR0%−PSRinh)/(PSR0%−PSR100%)*100, where PSRinh is the product sum ratio in the presence of inhibitor, PSR0% is the average product sum ration in the absence of inhibitor and PSR100% is the average product sum ratio in 100%-inhibition control samples. The IC50 values of inhibitors were determined by fitting the %-inhibition curves with 4 parameter dose-response model using XLfit 4 software.
(§4) As set forth in Table-26 and Table-27, below, IC5o values are defined as follows: IC50≦0.1 μM (+++); IC50>0.1 μM and ≦0.5 μM (++); IC50>0.5 μM (+).

[2] = target: T2, Full length human recombinant HDAC11 (Homo sapiens, UniProt Q96DB2); assay: In vitro histone deacetylase assay, enzymatic HDAC11 (electrophoretic mobility shift assay); assay type: biochemical; conditions: 10 nM HDAC11; 2 μM peptide substrate FAM-RHKK(tri-fluor-Ac)—NH2; 25° C.; 12 concentrations; read-out: HDAC11 Activity Range (IC50)
T2 construct: Full length human recombinant HDAC6 and HDAC11 proteins were expressed in baculoviral system
T2 sequence (Q96DB2 1-347): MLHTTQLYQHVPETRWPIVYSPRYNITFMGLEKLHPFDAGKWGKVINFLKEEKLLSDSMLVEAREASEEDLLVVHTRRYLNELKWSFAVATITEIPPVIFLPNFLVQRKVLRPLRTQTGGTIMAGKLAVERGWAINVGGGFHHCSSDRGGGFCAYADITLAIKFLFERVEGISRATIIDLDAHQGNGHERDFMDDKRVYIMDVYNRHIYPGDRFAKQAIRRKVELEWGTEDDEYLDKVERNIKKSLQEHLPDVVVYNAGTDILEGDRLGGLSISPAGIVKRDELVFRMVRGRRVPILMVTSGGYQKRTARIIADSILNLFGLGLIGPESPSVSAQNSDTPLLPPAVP
Procedure: as §1, §2, §3, §4

O=C(NO)c1ccc2c(c1)C[C@@]1(CC2)CCN(Cc2ccccc2C(F)(F)F)C1=O [Compound I-60, (S)—N-hydroxy-2′-oxo-1′-(2-(trifluoromethyl)benzyl)-3,4-dihydro-1H-spiro[naphthalene-2,3′-pyrrolidine]-7-carboxamide]
IC50 [1]: ≤ 0.1 µM
IC50 [2]: > 0.5 µM

O=C(NO)c1ccc2c(c1)C[C@]1(CC2)CCN(Cc2ccccc2F)C1=O [Compound I-103, (R)-1′-(2-fluorobenzyl)-N-hydroxy-2′-oxo-3,4-dihydro-1H-spiro[naphthalene-2,3′-pyrrolidine]-7-carboxamide]
IC50 [1]: ≤ 0.1 µM
IC50 [2]: ≤ 0.1 µM

CC(C)CN1C[C@@]2(CCc3ccc(C(=O)NO)cc3C2)CC1=O [Compound I-137, (R)—N-hydroxy-1′-isobutyl-5′-oxo-3,4-dihydro-1H-spiro[naphthalene-2,3′-pyrrolidine]-7-carboxamide]
IC50 [1]: ≤ 0.1 µM
IC50 [2]: > 0.5 µM

COc1ccc(CN2CCC3(CCc4ccc(C(=O)NO)cc4O3)CC2)cc1 [II-7, N-hydroxy-1′-(4-methoxybenzyl)spiro[chromane-2,4′-piperidine]-7-carboxamide]
IC50 [1]: > 0.5 µM
IC50 [2]: > 0.5 µM

O=C(NO)c1ccc2c(c1)CC1(CC2)CCN(C2CCCCC2)C1 (centres unmarked) [Compound I-5, 1′-cyclohexyl-N-hydroxy-3,4-dihydro-1H-spiro[naphthalene-2,3′-pyrrolidine]-7-carboxamide]
IC50 [1]: ≤ 0.1 µM
IC50 [2]: > 0.5 µM

CC(C)CCN1CC[C@]2(CCc3ccc(C(=O)NO)cc3C2)C1=O [Compound I-82, (R)—N-hydroxy-1′-isopentyl-2′-oxo-3,4-dihydro-1H-spiro[naphthalene-2,3′-pyrrolidine]-7-carboxamide]
IC50 [1]: ≤ 0.1 µM
IC50 [2]: 0.1 to 0.5 µM

COc1ccc(C(=O)N2CCC3(CCc4ccc(C(=O)NO)cc4C3)C2)cc1 (centres unmarked) [Compound I-1, N-hydroxy-1′-(4-methoxybenzoyl)-3,4-dihydro-1H-spiro[naphthalene-2,3′-pyrrolidine]-7-carboxamide]
IC50 [1]: ≤ 0.1 µM
IC50 [2]: > 0.5 µM

COc1ccccc1CN1CC[C@]2(CCc3ccc(C(=O)NO)cc3C2)C1=O [Compound I-93, (R)—N-hydroxy-1′-(2-methoxybenzyl)-2′-oxo-3,4-dihydro-1H-spiro[naphthalene-2,3′-pyrrolidine]-7-carboxamide]
IC50 [1]: ≤ 0.1 µM
IC50 [2]: 0.1 to 0.5 µM

O=C(NO)c1ccc2c(c1)CC1(CC2)CCN(CC2CCCCC2)C1=O (centres unmarked) [Compound I-23, 1′-(cyclohexylmethyl)-N-hydroxy-2′-oxo-3,4-dihydro-1H-spiro[naphthalene-2,3′-pyrrolidine]-7-carboxamide]
IC50 [1]: ≤ 0.1 µM
IC50 [2]: 0.1 to 0.5 µM

O=C(NO)c1ccc2c(c1)C[C@]1(CC2)CCN(CC2CCC2)C1=O [Compound I-81, (R)-1′-(cyclobutylmethyl)-N-hydroxy-2′-oxo-3,4-dihydro-1H-spiro[naphthalene-2,3′-pyrrolidine]-7-carboxamide]
IC50 [1]: ≤ 0.1 µM
IC50 [2]: > 0.5 µM

Cc1ccc(CN2CC[C@@]3(CCc4ccc(C(=O)NO)cc4C3)C2=O)cc1 [Compound I-122, (S)—N-hydroxy-1′-(4-methylbenzyl)-2′-oxo-3,4-dihydro-1H-spiro[naphthalene-2,3′-pyrrolidine]-7-carboxamide]
IC50 [1]: ≤ 0.1 µM
IC50 [2]: ≤ 0.1 µM

O=C(NO)c1ccc2c(c1)C[C@]1(CC2)CCN(Cc2ccc(OC(F)(F)F)cc2)C1=O [Compound I-100, (R)—N-hydroxy-2′-oxo-1′-(4-(trifluoromethoxy)benzyl)-3,4-dihydro-1H-spiro[naphthalene-2,3′-pyrrolidine]-7-carboxamide]
IC50 [1]: ≤ 0.1 µM
IC50 [2]: ≤ 0.1 µM

O=C(NO)c1ccc2c(c1)C[C@]1(CC2)CCN(Cc2cc(Cl)ccc2Cl)C1=O [Compound I-94, (R)-1′-(2,5-dichlorobenzyl)-N-hydroxy-2′-oxo-3,4-dihydro-1H-spiro[naphthalene-2,3′-pyrrolidine]-7-carboxamide]
IC50 [1]: ≤ 0.1 µM
IC50 [2]: ≤ 0.1 µM

COc1ccc(S(=O)(=O)N2CCC3(CCc4ccc(C(=O)NO)cc4O3)CC2)cc1 [II-2, N-hydroxy-1′-((4-methoxyphenyl)sulfonyl)spiro[chromane-2,4′-piperidine]-7-carboxamide]
IC50 [1]: ≤ 0.1 µM
IC50 [2]: > 0.5 µM

COCCn1c(N2CC[C@@]3(CCc4ccc(C(=O)NO)cc4C3)C2=O)nc2ccccc21 [Compound I-33, (S)—N-hydroxy-1′-(1-(2-methoxyethyl)-1H-benzo[d]imidazol-2-yl)-2′-oxo-3,4-dihydro-1H-spiro[naphthalene-2,3′-pyrrolidine]-7-carboxamide]
IC50 [1]: ≤ 0.1 µM
IC50 [2]: > 0.5 µM

O=C(NO)c1ccc2c(c1)C[C@@]1(CC2)CCN(Cc2ccc(F)cc2)C1=O [Compound I-41, (S)-1′-(4-fluorobenzyl)-N-hydroxy-2′-oxo-3,4-dihydro-1H-spiro[naphthalene-2,3′-pyrrolidine]-7-carboxamide]
IC50 [1]: ≤ 0.1 µM
IC50 [2]: > 0.5 µM

CCCN1CC[C@@]2(CCc3ccc(C(=O)NO)cc3C2)C1=O [Compound I-52, (S)—N-hydroxy-2′-oxo-1′-propyl-3,4-dihydro-1H-spiro[naphthalene-2,3′-pyrrolidine]-7-carboxamide]
IC50 [1]: ≤ 0.1 µM
IC50 [2]: > 0.5 µM

O=C(NO)c1ccc2c(c1)C[C@]1(CC2)CCN(Cc2cccnc2)C1=O [Compound I-97, (R)—N-hydroxy-2′-oxo-1′-(pyridin-3-ylmethyl)-3,4-dihydro-1H-spiro[naphthalene-2,3′-pyrrolidine]-7-carboxamide]
IC50 [1]: ≤ 0.1 µM
IC50 [2]: > 0.5 µM

O=C(NO)c1ccc2c(c1)C[C@@]1(CC2)CCN(Cc2cnc(Cl)s2)C1=O [Compound I-49, (S)-1′-((2-chlorothiazol-5-yl)methyl)-N-hydroxy-2′-oxo-3,4-dihydro-1H-spiro[naphthalene-2,3′-pyrrolidine]-7-carboxamide]
IC50 [1]: ≤ 0.1 µM
IC50 [2]: > 0.5 µM
